How the values were obtained:
[1] = metabolite analysis of plasma by radio-HPLC during PET; assay type: in vivo, cynomolgus monkey
Procedure: During each PET measurement, venous blood samples were taken from a femoral vein for the measurement of [^11 C]
From the obtained blood samples, plasma was obtained after centrifugation at 2,000 × g for 2 to 4 min and was mixed with 1.4 times the volume of acetonitrile. The supernatant acetonitrile-plasma mixture obtained after centrifugation at 2,000 × g for 2 to 4 min was injected into the radio-HPLC system. HPLC analysis was performed on a Waters μ-Bondapak-C18 column (300 × 7.8 mm, 10 μm) by gradient elution using (a) ammonium formate (100 mM) and (b) acetonitrile at 6.0 mL/min.

GlyT1 [2] = test: PET measurements using a cynomolgus monkey; assay type: in vivo
Procedure: PET measurements were performed for 123 min immediately after intravenous (i.v.) injection of radioligand at baseline and after pretreatment with SSR504734. SSR504734 was administered over 15 min, starting 30 min before the radioligand injection. PET measurements were performed on two separate days at a 6-week interval. One baseline PET measurement and one PET measurement after pretreatment with 0.1 mg/kg of SSR504734 were performed on the first day. One baseline PET measurement and two PET measurements after pretreatment with 0.5 and 1.5 mg/kg of SSR504734 were performed on the second day.
Regions of interest (ROI) for the thalamus, cerebellum, caudate, putamen, frontal cortex, temporal cortex, anterior cingulate cortex, pons, white matter, and the whole-brain contour were delineated on PET/MRI co-registered brain images for each monkey. […] PET data were analyzed using several parameters such as percent injected dose (%ID) and percent standard uptake value (%SUV), where

GlyT1 [3] = test: GlyT1 occupancy and VND by Lassen plot, PET in rhesus monkeys; assay type: in vivo, rhesus monkey; settings: for % of VND in VT ACC: anterior cingulate cortex; for % of VND in VT FC: frontal cortex; for % of VND in VT PUT: putamen; for % of VND in VT TC: temporal cortex
Procedure: (§1) PET measurements were performed for 123 min immediately after i.v. injection of radioligand at baseline and after pretreatment with SSR504734. SSR504734 was administered over 15 min, starting 30 min before the radioligand injection. PET measurements were performed on two separate days with two monkeys. One baseline PET measurement and one PET measurement after pretreatment with 1.5 mg/kg of SSR504734 were performed on one monkey. One baseline PET measurement and one PET measurement after pretreatment with 4.5 mg/kg were performed on the other monkey.
GlyT1 occupancy was estimated by applying Lassen plot approach, which can determine nondisplaceable distribution volume (VND) and occupancy using VT values at baseline and after pretreatment. Seven regions (the pons, cerebellum, putamen, frontal cortex, caudate, anterior cingulate cortex, and temporal cortex) were used for the plot.

GlyT1 [4] = test: PET measurements using rhesus monkeys, VT by two-tissue compartment model; assay type: in vivo, rhesus monkey; set-up: VT (baseline) WB / VT (baseline) THA / VT (baseline) CB / VT (baseline) CAU / VT (baseline) FC / VT (baseline) ACC / VT (baseline) TC: unit not given here; settings: for VT (baseline) ACC / VT (baseline) CAU / VT (baseline) CB / VT (baseline) FC / VT (baseline) Pons / VT (baseline) PUT / VT (baseline) TC / VT (baseline) THA / VT (baseline) WB: 2TC
Procedure: PET measurements were performed using a high-resolution research tomograph (CTI/Siemens Molecular Imaging, Knoxville, TN, USA) with an in-plane resolution less than 1.5 mm FWHM in the center of the FOV [30]. PET data were acquired by list mode. The data were reconstructed with a series of frames (5 × 1 min, 5 × 3 min, 5 × 6 min, and 13 × 10 min) using the Ordinary Poisson-3D-Ordered Subset Expectation Maximization (OP03D-OSEM) algorithm with 10 iterations and 16 subsets including modeling of the points spread function. Image reconstruction was performed on a quad-core PC running a fast reconstruction algorithm.
Anesthesia was induced by intramuscular injection of ketamine hydrochloride (60 mg) and maintained by the administration of a mixture of sevoflurane, O2, and medical air after endotracheal intubation. The head was immobilized with a fixation device. Body temperature was maintained by Bair Hugger Model 505 (Arizant Healthcare, MN, USA) and monitored by an esophageal thermometer. ECG, heart rate, respiratory rate, and oxygen saturation were continuously monitored throughout the experiments. Blood pressure was monitored every 5 min.
as §1
During each PET measurement, arterial blood was collected continuously for 3 min using an automated blood-sampling system at a speed of 3.0 mL/min (Allog AB, Molndal, Sweden). Blood samples (1.0 to 2.5 mL) were drawn at 4, 15, 30, 60, 90, and 120 min after the radioligand injection for blood and plasma radioactivity and metabolite correction.
Regions of interest (ROI) for the thalamus, cerebellum, caudate, putamen, frontal cortex, temporal cortex, anterior cingulate cortex, pons, white matter, and the whole-brain contour were delineated on PET/MRI co-registered brain images for each monkey. Co-registrations and ROI delineations were performed using PMOD 3.0 (Pixel-Wise Modeling Computer Software, PMOD Group, Zurich, Switzerland). PET data were analyzed using several parameters such as percent injected dose (%ID) and percent standard uptake value (%SUV), where
%ID=total radioactivity in the whole brain (MBq)/injected radioactivity (MBq)×100
%SUV=radioactivity (MBq/cc)/injected radioactivity (MBq)×body weight g×100.
In the PET measurements using rhesus monkeys, the total distribution volume (VT) was calculated by a two-tissue compartment model as well.

[5] = baseline + blocking (1.5 mg/kg)
[6] = baseline + blocking (4.5 mg/kg)

metabolites detected in the plasma ([1]; radiochromatograms, 4 and 90 min): more hydrophilic metabolites
fraction metabolized in plasma ([1]; within 90 min after injection): over 70%
time of whole brain peak (GlyT1 [2]; baseline, N = 2): 24 min
VND (GlyT1 [3]; baseline + blocking 1.5 mg/kg SSR504734, rhesus monkey 1, one value for all regions): 16.5
VND (GlyT1 [3]; baseline + blocking 4.5 mg/kg SSR504734, rhesus monkey 2, one value for all regions): 7.5
% of VND in VT ACC (GlyT1 [3]; [5]): 59%
% of VND in VT CAU (GlyT1 [3]; baseline + blocking (1.5 mg/kg), caudate): 55%
% of VND in VT CB (GlyT1 [3]; baseline + blocking (1.5 mg/kg), cerebellum): 50%
% of VND in VT FC (GlyT1 [3]; [5]): 52%
% of VND in VT Pons (GlyT1 [3]; baseline + blocking (1.5 mg/kg), pons): 66%
% of VND in VT PUT (GlyT1 [3]; [5]): 55%
% of VND in VT TC (GlyT1 [3]; [5]): 54%
% of VND in VT ACC (GlyT1 [3]; [6]): 52%
% of VND in VT FC (GlyT1 [3]; [6]): 48%
% of VND in VT PUT (GlyT1 [3]; [6]): 53%
% of VND in VT TC (GlyT1 [3]; [6]): 39%
VT (baseline) ACC (GlyT1 [4]; rhesus monkey 1, anterior cingulate cortex): 28.6
VT (Blocking (1.5 mg/kg)) ACC (GlyT1 [4]; rhesus monkey 1, anterior cingulate cortex, after SSR504734 1.5 mg/kg): 22.5
VT (baseline) CAU (GlyT1 [4]; rhesus monkey 1, caudate): 26.2
VT (Blocking (1.5 mg/kg)) CAU (GlyT1 [4]; rhesus monkey 1, caudate, after SSR504734 1.5 mg/kg): 22.0
VT (baseline) CB (GlyT1 [4]; rhesus monkey 1, cerebellum): 23.7
VT (Blocking (1.5 mg/kg)) CB (GlyT1 [4]; rhesus monkey 1, cerebellum, after SSR504734 1.5 mg/kg): 20.4
VT (baseline) FC (GlyT1 [4]; rhesus monkey 1, frontal cortex): 25.2
VT (Blocking (1.5 mg/kg)) FC (GlyT1 [4]; rhesus monkey 1, frontal cortex, after SSR504734 1.5 mg/kg): 20.6
VT (baseline) Pons (GlyT1 [4]; rhesus monkey 1, pons): 35.2
VT (Blocking (1.5 mg/kg)) Pons (GlyT1 [4]; rhesus monkey 1, pons, after SSR504734 1.5 mg/kg): 26.8
VT (baseline) PUT (GlyT1 [4]; rhesus monkey 1, putamen): 26.7
VT (Blocking (1.5 mg/kg)) PUT (GlyT1 [4]; rhesus monkey 1, putamen, after SSR504734 1.5 mg/kg): 22.8
VT (baseline) TC (GlyT1 [4]; rhesus monkey 1, temporal cortex): 25.6
VT (Blocking (1.5 mg/kg)) TC (GlyT1 [4]; rhesus monkey 1, temporal cortex, after SSR504734 1.5 mg/kg): 21.8
VT (baseline) THA (GlyT1 [4]; rhesus monkey 1, thalamus): 31.0
VT (Blocking (1.5 mg/kg)) THA (GlyT1 [4]; rhesus monkey 1, thalamus, after SSR504734 1.5 mg/kg): 29.6
VT (baseline) WB (GlyT1 [4]; rhesus monkey 1, whole brain): 23.1
VT (Blocking (1.5 mg/kg)) WB (GlyT1 [4]; rhesus monkey 1, whole brain, after SSR504734 1.5 mg/kg): 18.6
VT (baseline) ACC (GlyT1 [4]; rhesus monkey 2, anterior cingulate cortex): 15.5
VT (Blocking (4.5 mg/kg)) ACC (GlyT1 [4]; rhesus monkey 2, anterior cingulate cortex, after SSR504734 4.5 mg/kg): 9.0
VT (baseline) CAU (GlyT1 [4]; rhesus monkey 2, caudate): 17.0
VT (Blocking (4.5 mg/kg)) CAU (GlyT1 [4]; rhesus monkey 2, caudate, after SSR504734 4.5 mg/kg): 9.2
VT (baseline) CB (GlyT1 [4]; rhesus monkey 2, cerebellum): 12.8
VT (Blocking (4.5 mg/kg)) CB (GlyT1 [4]; rhesus monkey 2, cerebellum, after SSR504734 4.5 mg/kg): 9.0
VT (baseline) FC (GlyT1 [4]; rhesus monkey 2, frontal cortex): 14.3
VT (Blocking (4.5 mg/kg)) FC (GlyT1 [4]; rhesus monkey 2, frontal cortex, after SSR504734 4.5 mg/kg): 8.6
VT (baseline) Pons (GlyT1 [4]; rhesus monkey 2, pons): 16.9
VT (Blocking (4.5 mg/kg)) Pons (GlyT1 [4]; rhesus monkey 2, pons, after SSR504734 4.5 mg/kg): 10.9
VT (baseline) PUT (GlyT1 [4]; rhesus monkey 2, putamen): 15.8
VT (Blocking (4.5 mg/kg)) PUT (GlyT1 [4]; rhesus monkey 2, putamen, after SSR504734 4.5 mg/kg): 10.1
VT (baseline) TC (GlyT1 [4]; rhesus monkey 2, temporal cortex): 12.3
VT (Blocking (4.5 mg/kg)) TC (GlyT1 [4]; rhesus monkey 2, temporal cortex, after SSR504734 4.5 mg/kg): 8.9
VT (baseline) THA (GlyT1 [4]; rhesus monkey 2, thalamus): 15.7
VT (Blocking (4.5 mg/kg)) THA (GlyT1 [4]; rhesus monkey 2, thalamus, after SSR504734 4.5 mg/kg): 11.9
VT (baseline) WB (GlyT1 [4]; rhesus monkey 2, whole brain): 12.6
VT (Blocking (4.5 mg/kg)) WB (GlyT1 [4]; rhesus monkey 2, whole brain, after SSR504734 4.5 mg/kg): 8.5
SMILES: [11CH3]N1CCCCC1[C@@H](NC(=O)c1cccc(C(F)(F)F)c1Cl)c1ccccc1 (stereo partly drawn) [[^11 C]N-methyl-SSR504734, 2-chloro N-[(S)-{(S)-1-[^11 C]methylpiperidin-2-yl} (phenyl)methyl] 3-trifluoromethyl-benzamide]
rank order of regional brain uptake (GlyT1 [2]; baseline): thalamus > pons > cerebellum ≒ putamen > cortical regions > white matter
radioactivity level in brain after pretreatment with SSR504734 (GlyT1 [2]; pretreatment 0.1 to 1.5 mg/kg SSR504734, dose-dependent): increased in all regions
rank order of regional brain uptake (GlyT1 [4]; baseline): thalamus > pons > putamen > frontal cortex≒temporal cortex > cerebellum> > white matter
uptake in the brain regions after pretreatment with SSR504734 (GlyT1 [4]; pretreatment 1.5 and 4.5 mg/kg SSR504734): increase
% decrease of VT ACC (GlyT1 [4]; rhesus monkey 1, anterior cingulate cortex, baseline to blocking with SSR504734 1.5 mg/kg): 21.3%
% decrease of VT CAU (GlyT1 [4]; rhesus monkey 1, caudate, baseline to blocking with SSR504734 1.5 mg/kg): 16.0%
% decrease of VT CB (GlyT1 [4]; rhesus monkey 1, cerebellum, baseline to blocking with SSR504734 1.5 mg/kg): 13.9%
% decrease of VT FC (GlyT1 [4]; rhesus monkey 1, frontal cortex, baseline to blocking with SSR504734 1.5 mg/kg): 18.3%
% decrease of VT Pons (GlyT1 [4]; rhesus monkey 1, pons, baseline to blocking with SSR504734 1.5 mg/kg): 23.9%
% decrease of VT PUT (GlyT1 [4]; rhesus monkey 1, putamen, baseline to blocking with SSR504734 1.5 mg/kg): 14.6%
% decrease of VT TC (GlyT1 [4]; rhesus monkey 1, temporal cortex, baseline to blocking with SSR504734 1.5 mg/kg): 14.8%
% decrease of VT THA (GlyT1 [4]; rhesus monkey 1, thalamus, baseline to blocking with SSR504734 1.5 mg/kg): 4.5%
% decrease of VT ACC (GlyT1 [4]; rhesus monkey 2, anterior cingulate cortex, baseline to blocking with SSR504734 4.5 mg/kg): 41.9%
% decrease of VT CAU (GlyT1 [4]; rhesus monkey 2, caudate, baseline to blocking with SSR504734 4.5 mg/kg): 45.9%
% decrease of VT CB (GlyT1 [4]; rhesus monkey 2, cerebellum, baseline to blocking with SSR504734 4.5 mg/kg): 29.7%
% decrease of VT FC (GlyT1 [4]; rhesus monkey 2, frontal cortex, baseline to blocking with SSR504734 4.5 mg/kg): 39.9%
% decrease of VT Pons (GlyT1 [4]; rhesus monkey 2, pons, baseline to blocking with SSR504734 4.5 mg/kg): 35.5%
% decrease of VT PUT (GlyT1 [4]; rhesus monkey 2, putamen, baseline to blocking with SSR504734 4.5 mg/kg): 36.1%
% decrease of VT TC (GlyT1 [4]; rhesus monkey 2, temporal cortex, baseline to blocking with SSR504734 4.5 mg/kg): 27.6%
% decrease of VT THA (GlyT1 [4]; rhesus monkey 2, thalamus, baseline to blocking with SSR504734 4.5 mg/kg): 24.2%
% decrease of VT WB (GlyT1 [4]; rhesus monkey 2, whole brain, baseline to blocking with SSR504734 4.5 mg/kg): 32.5%
